The test system of the experiment is chronic Foot Rot. The experiment is described as follows: Chronic Foot Rot with proliferative mass in a heifer (Example 25). The format is in vivo, American Shorthorn heifer. Conditions: injectable antibiotic for 7 days, before cream treatment. The text has this: A two-year old female American Shorthorn heifer was presented with lameness and a proliferative mass (3″ in diameter)with associated swelling and large dense scab between the digits of the left hind foot diagnosed as chronic Foot Rot. […] After 4 months lameness reoccurred and the area again became inflamed. […] A surgical consultation determined that the area needed to be surgically excised under general anesthesia. Due to late term pregnancy, surgery was postponed until after delivery. While waiting for surgery, the cream of Example 18 was applied once daily by massaging the cream into the area between the digits. […] No surgery or further antibiotic therapy was anticipated. FIG. 11A depicts the infection in the left hind foot before treatment and FIG. 11B depicts the infected area after 3 weeks of treatment with the cream of Example 18.

For the compound `CS(=O)(=O)c1ccc([C@@H](O)[C@@H](CF)NC(=O)C(Cl)Cl)cc1` [Nuflor], the lameness result is recorded as “reduced lameness” and the “reduction of mass size” value is listed as “approximately ⅓”.

(Values after US10500219B2, “Compositions and methods for tissue regeneration” (ORBIS HEALTH SOLUTIONS LLC, priority 2012, dated 2019).)
